From US20090142364A1, “Method for finding novel peptide immunostimulatory adjuvants, compositions and methods of use” (priority 2007, published 2009)
Where a SMILES comes first, the peptide text is derived from it. [ ]: non-standard residue; d: D form.

Experiments:
[1] = test system: mAb E6/1.2; conditions: cited from earlier work
[2] = test system: antibody response to ovalbumin; assay: Adjuvant activity: antibody response to ovalbumin in mice, titer by solid-phase ELISA; type: in vivo, Balb/c mice; conditions: for Adjuvant index / Anti-ovalbumin antibody titer: i.p.
Procedure: To study the adjuvant activity of RN-peptide, Balb/c mice were immunized with ovalbumin in saline in the presence of the RN-peptide, its analogs or GMDP, or without any adjuvant (control). The adjuvant was introduced on first immunization, whereas second immunization was carried out with half dose of OVA without adjuvant.
Adjuvant activity. Groups of 5 Balb/c mice were administered i.p. with 2.5-10 μg ovalbumin (Sigma, USA) per mouse in 200 μl PBS. RN-peptide (0.1-100 μg) or GMDP (1-100 μg) was introduced simultaneously with ovalbumin on first immunization. The second immunization was carried out 28 days later with half dose of ovalbumin (1.25-5.0 μg/200 μl) without adjuvant. Control mice received ovalbumin twice without adjuvant. Three days after the second immunization mice were bled from the tail vein. […] Control mice received polysaccharide without any adjuvant. Five and ten days after immunization mice were bled.
The antibody titer was evaluated by solid-phase ELISA as described by Douillard and Hoffman (1983) Enzyme-linked immunosorbent assay for screening monoclonal antibody production using enzyme-labeled second antibody. The antigen (ovalbumin or polysaccharide), 5 μg/ml in bicarbonate buffer, pH 8.6 (100 μl), was introduced into wells of 96-well microtiter plate. Incubation was carried out overnight at 4° C. The plate was washed 5 times with PBS and 5 times with PBS/0.1% Tween-20 (PBS-T). Remaining binding sites were blocked with 1% gelatin in PBS (2 h, room temperature). After washing 100 μl of mouse serum (1:100 dilution) was added, and serial three-fold dilutions were made. Bound antibodies were visualized by incubation with Horse-Radish-Peroxidase (HRP)-conjugated rabbit anti-mouse antibodies and OPD as the chromogenic substrate.

[3] = rat, in vivo, ip
Procedure: (§1) We studied the Ia-antigen-inducing activity of RN-peptide by stimulation in vitro of murine peritoneal macrophages. Flow cytometry was used to assess Ia-antigen expression. […] The pyrogenicity of the peptide was studied in Wistar rats. […] The dynamics of alteration of rectal temperature were monitored during 2.5 h.
The pyrogenic effect SPF female Wistar rats were injected i.p. with a peptide (1.01 mg/kg; 5.74×10^−7 mole/kg) in PBS or with equal dose of GMDP (0.4 mg/kg; 5.74×10^−7 mole/kg). Rectal temperature was recorded every 5 minutes for 160 minutes using PowerLabe/4sp system with an electronic thermometer (MLT1403 Rectal Probe for Rats, AD Instruments USA). All data were quantified (mean±SEM) and compared by the variance analysis.

[4] = test system: Balb/c mice peritoneal mononuclear cells (PMC); assay: Ia-antigen-inducing effect, flow cytometry, peritoneal mononuclear cells; type: cell-based, mouse
Procedure: as §1
Balb/c mice peritoneal mononuclear cells (PMC) were isolated by Histopaque density gradient centrifugation. PMC or WEHI-3 cells were incubated with RN-peptide (0.1-10 μg/ml) or GMDP (positive control) or saline (negative control) in RPMI 1640 medium, supplemented with 5% fetal calf serum upon rotary mixing for 18 h at 37° C. Cells were stained on ice bath with MKD6 anti-Ia^d mAb (supernatant from the in vitro culture, 1:10 dilution) and FITC-labeled anti-mouse immunoglobulin (Sigma, USA, 1:300 dilution), and then with phycoerythrin-labeled F4/80 mAb (Caltag, USA, 0.2 μg/100 μl). Ia antigen expression was assessed by flow cytometry using EPICS “Elite” (Coulter, USA).

[5] = test system: E. coli strain TG-1; assay: Survival of Balb/c mice infected with E. coli strain TG-1; type: in vivo, mouse; conditions: 2 ng i.p., 6 mice at 0 h
Procedure: Groups of Balb/c mice (20-22 g) were administered i.p. with RN-peptide, or GMDP, or saline (control), and then infected i.p. with E. coli strain TG-1 cells. Two doses of E. coli cells were used—1×10^8 (LD50) and 2×10^8 (LD100). Mice were infected one day (experiment A) or seven days (experiment B) after injection of the immunomodulator. Survival of mice was assessed during three days. Results showing that RN-peptide protects mice from lethal doses of E. coli infections (Table 4).

[6] = adjuvant 1 μg, ovalbumin 10 μg then 5 μg
[7] = adjuvant 10 μg, ovalbumin 10 μg then 5 μg
[8] = adjuvant 100 μg, ovalbumin 10 μg then 5 μg
[9] = Experiment A (infected one day after injection), 1 × 10^8 E. coli cells (LD50)
[10] = Experiment A (infected one day after injection), 2 × 10^8 E. coli cells (LD100)
[11] = Experiment B (infected seven days after injection), 1 × 10^8 E. coli cells (LD50)
[12] = Experiment B (infected seven days after injection), 2 × 10^8 E. coli cells (LD100)
[13] = adjuvant 10 μg, ovalbumin 2.5 μg then 1.25 μg

## CC(=O)N[C@H]1[C@H](O[C@H]2[C@H](O[C@H](C)C(=O)O)[C@@H](NC(C)=O)C(O)O[C@@H]2CO)O[C@H](CO)[C@@H](O)[C@@H]1O (stereo partly drawn) [GlcNAc-β(1-4)-MurNAc]
[1]
  inhibition of binding of GMDP to E6/1.2 mAb: could be inhibited by high concentration

## C[C@H](N)C(=O)N[C@H](CCC(=O)O)C(N)=O [Ala-D-iGln] (H-Ala-[dE]-NH2)
[1]
  inhibition of binding of GMDP to E6/1.2 mAb: not

## R-I-peptide: 10-mer, RN-peptide truncated from C-terminus (SEQ ID NO: 9) (RVPPRYHAKI)
[2]; [6]
  Adjuvant index: 6.3 ± 0.06
  Anti-ovalbumin antibody titer: 24000
[2]; [7]
  Adjuvant index: 3.2 ± 0.09
  Anti-ovalbumin antibody titer: 19200
[2]; [8]
  Adjuvant index: 4.2 ± 0.05
  Anti-ovalbumin antibody titer: 25200
[2]; ovalbumin in mice
  adjuvant activity (in words): adjuvant active

## CC(=O)NC1C(OC2C(CO)OC(O)C(NC(C)=O)C2OC(C)C(=O)NC(C)C(=O)NC(CCC(=O)O)C(N)=O)OC(CO)C(O)C1O (stereo not drawn) [LL-GMDP]
[1]; compared with GMDP
  binding of mAb E6/1.2: bind equally well

## R-H-peptide: 7-mer, RN-peptide truncated from C-terminus (SEQ ID NO: 10); truncated heptapeptide (RVPPRYH)
[2]; [6]
  Adjuvant index: 0.7 ± 0.03
  Anti-ovalbumin antibody titer: 4000
[2]; [7]
  Adjuvant index: 2.3 ± 0.05
  Anti-ovalbumin antibody titer: 13900
[2]; [8]
  Adjuvant index: 8.6 ± 0.09
  Anti-ovalbumin antibody titer: 51900
[2]; mouse, in vivo
  dose required for maximal effect relative to RN-peptide: 100 times

## VN-peptide: 14-mer, RN-peptide truncated from N-terminus (SEQ ID NO: 11) (VPPRYHAKISPMVN)
[2]; [6]
  Adjuvant index: 0.9 ± 0.03
  Anti-ovalbumin antibody titer: 5400 ± 200
[2]; [7]
  Adjuvant index: 1.4 ± 0.04
  Anti-ovalbumin antibody titer: 8400 ± 230
[2]; [8]
  Adjuvant index: 0.7 ± 0.03
  Anti-ovalbumin antibody titer: 4200 ± 150

## CC(=O)N[C@H]1[C@H](O[C@H]2[C@H](O[C@H](C)C(=O)N[C@@H](C)C(=O)N[C@H](CCC(=O)O)C(N)=O)[C@@H](NC(C)=O)C(O)O[C@@H]2CO)O[C@H](CO)[C@@H](O)[C@@H]1O (stereo partly drawn) [GMDP, N-acetylglucosaminyl-β1-4-N-acetylmuramyl-alanyl-D-isoglutamine, reference compound]
[3]
  increase in body temperature: 2.0-4.0%
[4]; 18 h incubation
  concentration of peak (optimal) Ia-antigen response: 10 µg/mL
[4]; at optimal dose, overnight treatment
  increase in Ia-positive cell number: 10%
[4]; overnight treatment
  optimal dose for Ia-positive cell increase: 10 µg
[5]; [9]
  Number of survivors: 2
  surviving mice, 24 hours after infection: 2
  surviving mice, 28 hours after infection: 2
  surviving mice, 72 hours after infection: 2
[5]; [10]
  Number of survivors: 1
  surviving mice, 24 hours after infection: 2
  surviving mice, 28 hours after infection: 2
  surviving mice, 72 hours after infection: 1
[5]; [11]
  Number of survivors: 2
  surviving mice, 24 hours after infection: 5
  surviving mice, 28 hours after infection: 2
  surviving mice, 72 hours after infection: 2
[5]; [12]
  Number of survivors: 0
  surviving mice, 24 hours after infection: 3
  surviving mice, 28 hours after infection: 2
  surviving mice, 72 hours after infection: 0
[2]; [6]
  Adjuvant index: 0.7 ± 0.03
  Anti-ovalbumin antibody titer: 4000 ± 150
[2]; [13]
  Adjuvant index: 2.37 ± 0.06
  Anti-ovalbumin antibody titer: 5800 ± 150
[2]; [7]
  Adjuvant index: 1.3 ± 0.03
  Anti-ovalbumin antibody titer: 7900 ± 200
[2]; [8]
  Adjuvant index: 10.8 ± 0.08
  Anti-ovalbumin antibody titer: 64800 ± 500

## RV-peptide: 14-mer, RN-peptide truncated from C-terminus (SEQ ID NO: 8) (RVPPRYHAKISPMV)
[2]; [6]
  Adjuvant index: 6.3 ± 0.06
  Anti-ovalbumin antibody titer: 37800 ± 350
[2]; [7]
  Adjuvant index: 1.4 ± 0.04
  Anti-ovalbumin antibody titer: 8400 ± 240
[2]; [8]
  Adjuvant index: 0.8 ± 0.03
  Anti-ovalbumin antibody titer: 4800 ± 180
